Entries after “also recorded” stand apart in the source; their conditions may differ.
Columns and labels:
[1] = test system: MM cell lines; test: Cytotoxicity toward Multiple Myeloma cell lines; format: cell-based; conditions: various MM cell lines
[2] = test system: FAP-transfected HEK tumor xenograft; test: Anticancer activity in FAP-transfected HEK tumor xenograft, 40-day study; format: in vivo, mice
Excerpt: Having determined the levels of FAP expression in the HEK xenograft model, the anticancer activity of ARI-3996 was next evaluated in a 40-day study. […] It also suffers conformation-dependent inactivation over time.

[3] = test system: normal cells; test: Cytotoxicity toward normal cells; format: cell-based
[4] = test system: U266 tumor xenografts; test: Anticancer effects in U266 tumor-bearing mice (ELISA and bioluminescence); format: in vivo; conditions: ARI-3996 50 mg/kg, Velcade 0.5 mg/kg, twice a week for 2 weeks
Description: ARI-3996 consistently outperformed Velcade® in a mouse MM model. Mice bearing U266 tumor xenografts (2 female, 2 male) were treated with either the vehicle, ARI-3996, or Velcade® twice a week (day 1 and day 4) for 2 weeks. […] The inhibition of the tumor was evaluated using ELISA (μg/mL) and bioluminescence.

[5] = test system: solid tumors; test: Cytotoxicity toward solid tumors; format: cell-based
[6] = Tissue distribution of Velcade, ARI-3996 and ARI-2727D in mice; format: in vivo
Description: ARI-3996 is cleaved to ARI-2727D in and around tumors, thus facilitating the buildup of ARI-2727D in tumors.
Velcade®'s high toxicity would also result from the accumulation of the drug in the organs at the expense of accumulation in the tumor. […] Thus ARI-2727D is being selectively delivered to solid tumors via FAP activation of ARI-3996.
Finally, FAP activation was verified as the mode by which ARI-2727D tumor accumulation was taking place. In FIG. 24, ARI-2727D concentrations at 1 hour post-injection were compared with ARI-2727D concentrations 1 hour after injection of the prodrug form (ARI-3996).

[7] = Maximum tolerated dose in mice; format: in vivo
[8] = test system: HPAF-II carcinoma xenografts; conditions: HPAF-II xenograft; ARI-3996 100 mg/kg i.p., bortezomib 1 mg/kg
Description: ARI-3996 and bortezomib were administered twice weekly (day (D)1/D4 schedule), and ARI-3996 was also given from day 1 to day 5 for 5 consecutive days (QD×5 schedule).
One-way ANOVA with Dunnett's post test for test versus vehicle (P<0.0001).
ARI-3996 b.i.d. s.c. and gemcitabine once per day i.p. were administered twice weekly. Mean±SEM.

[9] = test system: FAP; test: Activation of ARI-3996 to release ARI-2727 in FAP knockout versus FAP+ mice; format: in vivo; conditions: FAP+ mice treated with ARI-3996
Description: Mouse models may over-report systemic toxicity of ARI-3996 compared with that possible in cancer patients. This was further verified by treatment of FAP knockout mice with ARI-3996. In knockout mice (FIG. 21), no activation of ARI-3996 to release ARI-2727 took place, whereas in FAP+ mice a concentration of the released warhead ARI-2727 of 150 ng/mL was reached.

[10] = mice bearing PC3 prostate tumors; cited from earlier work
[11] = molecular target: DPP8 (Homo sapiens, UniProt Q6V1X1); test: In vitro cleavage of fluorogenic substrate ARI-3144 (AMC fluorescence); format: biochemical; conditions: fluorescence of released AMC
Excerpt: (§1) Cleavage was monitored by measuring fluorescence of the AMC leaving group (excitation, 355 nm; emission, 460 nm).
(§2) The D-alanine at P2 of the fluorogenic substrate, N-(Quinoline-4-carbonyl)-D-Ala-Pro-AMC [AMC=7-amino-4-methylcoumarin] (ARI-3144), confers selectivity for FAP so that it is cleaved to release fluorescent AMC by recombinant FAP but not by other DPP-IV-like proteases (FIG. 3). […] FAP is reportedly not expressed constitutively in healthy tissue with the exception of endometrium, although FAP proteolytic activity is detectable in plasma. […] The ability to measure FAP proteolytic activity in tumors is required to evaluate the usefulness of ARI-3996 as a chemotherapeutic agent. Hitherto, FAP activity has not been quantified in human or mouse tumors. […] We will use the assay to select a mouse tumor model for investigation of ARI-3996's activity in which the increase in tumor-associated FAP activity relative to plasma is equivalent to that in human epithelial cancer.

[12] = molecular target: T1, PREP (Homo sapiens, UniProt P48147); test: as above; format: biochemical; conditions: fluorescence of released AMC
T1 sequence (P48147 1-710): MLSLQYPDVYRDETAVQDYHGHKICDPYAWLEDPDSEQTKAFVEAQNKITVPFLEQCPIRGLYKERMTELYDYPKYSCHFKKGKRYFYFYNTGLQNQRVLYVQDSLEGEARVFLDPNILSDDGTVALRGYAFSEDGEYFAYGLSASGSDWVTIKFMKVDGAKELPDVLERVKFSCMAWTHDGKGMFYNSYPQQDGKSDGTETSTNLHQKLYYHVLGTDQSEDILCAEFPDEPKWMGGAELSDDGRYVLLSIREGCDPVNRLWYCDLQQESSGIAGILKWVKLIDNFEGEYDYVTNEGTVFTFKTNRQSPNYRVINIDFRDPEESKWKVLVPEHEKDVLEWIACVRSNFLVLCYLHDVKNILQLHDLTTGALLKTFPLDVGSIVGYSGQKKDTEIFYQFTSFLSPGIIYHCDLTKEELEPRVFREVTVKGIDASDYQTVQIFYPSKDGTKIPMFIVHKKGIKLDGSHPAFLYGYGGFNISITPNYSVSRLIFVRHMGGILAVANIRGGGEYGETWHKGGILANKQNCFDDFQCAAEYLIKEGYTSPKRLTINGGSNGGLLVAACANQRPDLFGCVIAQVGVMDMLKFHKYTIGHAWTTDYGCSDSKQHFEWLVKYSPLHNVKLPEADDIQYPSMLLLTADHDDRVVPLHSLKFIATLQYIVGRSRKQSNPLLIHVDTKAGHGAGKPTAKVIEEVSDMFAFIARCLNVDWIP
Excerpt: as §1, §2

[13] = molecular target: DPP9 (Homo sapiens, UniProt Q86TI2); test: as above; format: biochemical; conditions: fluorescence of released AMC
Excerpt: as §1, §2

[14] = molecular target: T2, recombinant FAP (Homo sapiens, UniProt Q12884); test: as above; format: biochemical; conditions: fluorescence of released AMC
T2 sequence (Q12884 1-760): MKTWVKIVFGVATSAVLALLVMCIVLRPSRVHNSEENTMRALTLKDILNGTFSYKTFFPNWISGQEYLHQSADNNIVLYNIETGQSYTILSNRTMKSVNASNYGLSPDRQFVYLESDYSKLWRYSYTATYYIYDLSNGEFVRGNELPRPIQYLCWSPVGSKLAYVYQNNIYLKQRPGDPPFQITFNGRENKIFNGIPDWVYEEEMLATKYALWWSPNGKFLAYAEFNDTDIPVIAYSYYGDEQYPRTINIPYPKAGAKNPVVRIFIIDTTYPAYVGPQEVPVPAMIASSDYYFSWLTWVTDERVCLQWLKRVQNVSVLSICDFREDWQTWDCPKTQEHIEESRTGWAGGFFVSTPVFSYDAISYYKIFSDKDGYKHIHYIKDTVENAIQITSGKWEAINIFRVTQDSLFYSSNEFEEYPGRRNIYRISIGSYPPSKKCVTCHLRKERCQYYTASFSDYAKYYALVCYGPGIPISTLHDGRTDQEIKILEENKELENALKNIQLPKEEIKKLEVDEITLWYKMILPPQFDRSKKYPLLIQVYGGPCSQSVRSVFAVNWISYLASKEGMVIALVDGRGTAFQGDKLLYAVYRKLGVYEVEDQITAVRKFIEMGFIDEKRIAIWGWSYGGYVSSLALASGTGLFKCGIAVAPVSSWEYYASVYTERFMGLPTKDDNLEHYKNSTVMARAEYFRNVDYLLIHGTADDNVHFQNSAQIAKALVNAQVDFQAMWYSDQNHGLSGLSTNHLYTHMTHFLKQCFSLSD
Excerpt: as §1, §2

[15] = molecular target: DPPIV (Homo sapiens, UniProt P27487); test: as above; format: biochemical; conditions: fluorescence of released AMC
Excerpt: as §1, §2

[16] = molecular target: DPPII (Homo sapiens, UniProt Q9UHL4); test: as above; format: biochemical; conditions: fluorescence of released AMC
Excerpt: as §2

Chain of DPP9 (Q86TI2 whole entry, species assumed): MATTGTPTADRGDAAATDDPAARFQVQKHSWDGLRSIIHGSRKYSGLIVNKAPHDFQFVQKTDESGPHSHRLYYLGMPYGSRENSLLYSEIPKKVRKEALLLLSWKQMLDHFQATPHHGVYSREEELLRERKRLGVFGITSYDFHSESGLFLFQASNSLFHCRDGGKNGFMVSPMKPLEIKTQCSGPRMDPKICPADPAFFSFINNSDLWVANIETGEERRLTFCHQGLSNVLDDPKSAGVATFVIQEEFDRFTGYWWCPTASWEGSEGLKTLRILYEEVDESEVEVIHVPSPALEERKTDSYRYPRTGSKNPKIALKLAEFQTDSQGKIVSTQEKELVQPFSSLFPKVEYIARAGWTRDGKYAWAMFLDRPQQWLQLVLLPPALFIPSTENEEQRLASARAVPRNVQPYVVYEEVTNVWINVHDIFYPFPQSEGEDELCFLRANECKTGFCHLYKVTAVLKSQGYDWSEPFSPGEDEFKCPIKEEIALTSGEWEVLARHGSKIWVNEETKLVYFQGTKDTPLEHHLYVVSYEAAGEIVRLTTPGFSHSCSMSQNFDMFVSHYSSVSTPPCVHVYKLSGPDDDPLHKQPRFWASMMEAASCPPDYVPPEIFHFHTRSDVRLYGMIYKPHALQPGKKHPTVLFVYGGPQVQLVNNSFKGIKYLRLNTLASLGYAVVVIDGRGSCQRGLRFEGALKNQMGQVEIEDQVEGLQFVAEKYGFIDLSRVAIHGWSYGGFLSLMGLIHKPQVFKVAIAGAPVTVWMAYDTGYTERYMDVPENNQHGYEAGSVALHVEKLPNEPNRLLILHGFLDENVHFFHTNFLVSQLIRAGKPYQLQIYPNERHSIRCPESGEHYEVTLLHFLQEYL
Chain of DPPIV (P27487 whole entry, species assumed): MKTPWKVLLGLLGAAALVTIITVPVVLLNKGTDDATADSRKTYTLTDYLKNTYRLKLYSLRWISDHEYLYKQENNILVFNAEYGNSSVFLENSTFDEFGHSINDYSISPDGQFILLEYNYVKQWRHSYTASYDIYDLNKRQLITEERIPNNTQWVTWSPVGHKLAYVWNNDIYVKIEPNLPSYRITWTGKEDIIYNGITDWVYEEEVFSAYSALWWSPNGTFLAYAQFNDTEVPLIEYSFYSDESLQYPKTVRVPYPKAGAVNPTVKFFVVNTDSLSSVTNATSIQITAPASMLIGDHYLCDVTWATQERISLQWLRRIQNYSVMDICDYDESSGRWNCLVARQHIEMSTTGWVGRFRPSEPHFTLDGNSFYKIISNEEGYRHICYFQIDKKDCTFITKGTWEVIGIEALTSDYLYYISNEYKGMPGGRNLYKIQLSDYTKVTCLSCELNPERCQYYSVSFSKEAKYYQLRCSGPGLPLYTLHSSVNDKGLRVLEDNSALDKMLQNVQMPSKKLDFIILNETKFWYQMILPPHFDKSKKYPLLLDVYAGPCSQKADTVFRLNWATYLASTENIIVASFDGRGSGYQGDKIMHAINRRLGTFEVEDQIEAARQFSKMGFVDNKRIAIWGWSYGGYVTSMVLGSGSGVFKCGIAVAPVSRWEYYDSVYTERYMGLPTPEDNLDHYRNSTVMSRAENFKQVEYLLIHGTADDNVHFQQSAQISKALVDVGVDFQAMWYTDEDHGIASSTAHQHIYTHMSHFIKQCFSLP
Chain of DPP8 (Q6V1X1 whole entry, species assumed): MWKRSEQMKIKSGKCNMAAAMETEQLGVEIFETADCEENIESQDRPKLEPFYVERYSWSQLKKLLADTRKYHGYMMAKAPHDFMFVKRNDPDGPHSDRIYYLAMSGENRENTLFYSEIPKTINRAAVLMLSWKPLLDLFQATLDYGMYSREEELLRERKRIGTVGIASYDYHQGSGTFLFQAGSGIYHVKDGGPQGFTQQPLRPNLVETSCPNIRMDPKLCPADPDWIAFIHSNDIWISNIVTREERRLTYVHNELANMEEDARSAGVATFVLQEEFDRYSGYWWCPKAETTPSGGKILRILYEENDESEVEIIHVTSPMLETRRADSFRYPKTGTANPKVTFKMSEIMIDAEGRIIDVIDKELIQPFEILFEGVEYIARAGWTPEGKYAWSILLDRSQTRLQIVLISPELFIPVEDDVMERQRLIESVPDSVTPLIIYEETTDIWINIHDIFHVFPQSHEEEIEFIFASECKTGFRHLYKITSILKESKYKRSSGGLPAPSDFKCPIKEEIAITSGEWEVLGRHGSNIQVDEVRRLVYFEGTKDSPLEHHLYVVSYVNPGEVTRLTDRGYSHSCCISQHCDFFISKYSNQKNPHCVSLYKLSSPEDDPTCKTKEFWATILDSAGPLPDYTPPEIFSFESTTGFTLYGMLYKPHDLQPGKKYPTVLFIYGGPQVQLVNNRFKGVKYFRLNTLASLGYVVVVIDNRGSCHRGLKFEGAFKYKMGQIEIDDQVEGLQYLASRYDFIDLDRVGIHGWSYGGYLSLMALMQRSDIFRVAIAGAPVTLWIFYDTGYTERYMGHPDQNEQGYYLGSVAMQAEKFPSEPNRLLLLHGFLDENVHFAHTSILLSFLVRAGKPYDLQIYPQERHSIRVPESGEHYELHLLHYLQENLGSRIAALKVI

SMILES: CC(C)C[C@H](NC(=O)[C@H](Cc1ccccc1)NC(=O)c1cnccn1)B(O)O [bortezomib, reference compound]
- Cytotoxicity [1]: extremely high potency
- Tumor growth inhibition [2]: hardly slowed the growth of the tumors
- Cytotoxicity [3]: slightly lower toxicity
- Deaths / survival [4]: 1
- Cytotoxicity [5]: much lower
- Tissue distribution of the administered drug ([6]; mouse, in vivo): much higher concentrations in the heart, lung, kidney, liver, spleen, and lung than in the tumor
- MTD (maximum tolerated dose) [7]: 1 mg/kg
- Antitumor effect at MTD [8]: refractory; also recorded: lacks significant antitumor activity

SMILES: CC(C)CC(NC(=O)C(N)Cc1cccc2ccccc12)B(O)O (centres unmarked) [ARI-2727D, Ala(1-Nal)-boroLeu]
- Cytotoxicity [1]: extremely high potency
- Tumor growth inhibition [2]: potent tumor inhibition
- Cytotoxicity [3]: slightly lower toxicity
- Cytotoxicity [5]: much lower
- Tissue distribution of ARI-2727D after injection of prodrug ([6]; 1 hour after injection of ARI-3996): highest concentration of ARI-2727D was found in the tumor
- Tissue distribution of ARI-2727D after direct injection ([6]; 1 hour post-injection of ARI-2727D): highest concentration of the drug accumulating in the kidneys and lung
- Tissue distribution of ARI-2727D formed from ARI-3996 ([6]; mice given ARI-3996): much higher relative concentrations in the tumor
- Concentration of the released warhead ARI-2727 [9]: 150 ng/mL

SMILES: CC(C)C[C@H](NC(=O)[C@H](Cc1ccccc1)NC(=O)c1cnccn1)B(O)O [^14C-bortezomib]
- Healthy organ exposure relative to tumor exposure [10]: ≤ 9 fold

SMILES: Cc1cc(=O)oc2cc(NC(=O)[C@@H]3CCCN3C(=O)[C@@H](C)NC(=O)c3ccnc4ccccc34)ccc12 [ARI-3144, N-(Quinoline-4-carbonyl)-D-Ala-Pro-AMC]
- Cleavage by DPP8 [11]: no cleavage
- Cleavage by PREP [12]: no cleavage
- Cleavage by DPP9 [13]: no cleavage
- Cleavage by FAP [14]: excellent substrate for FAP
- Cleavage by DPPIV [15]: no cleavage
- Cleavage by DPPII [16]: no cleavage

— patent US12214047B2, “FAP-activated proteasome inhibitors for treating solid tumors” (Trustees of Tufts College, priority 2011, dated 2025)
